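Step 1: Grow cells in 96-well plates. Step 2: Expose to compound for 48 hours at 5 concentrations. Step 3: Interpolate endpoints linearly; if unreached, use highest concentration. The concentration for 50% growth inhibition is given as GI50. TGI: concentration producing complete growth inhibition.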
Assays:
Assay in all cases: DTP human tumour cell line panel, 48 h
CCRF-CEM leukemia = test system: CCRF-CEM leukemia
SF-539 CNS = test system: SF-539 CNS
SN12C renal = test system: SN12C renal
MALME-3M melanoma = test system: MALME-3M melanoma
HCC-2998 colon = test system: HCC-2998 colon
HOP-62 NSCLC = test system: HOP-62 NSCLC
MCF7 breast = test system: MCF7 breast
MOLT-4 leukemia = test system: MOLT-4 leukemia
DU-145 prostate = test system: DU-145 prostate
NCI-H460 lung = test system: NCI-H460 lung

Row | SMILES | GI50 (CCRF-CEM leukemia) [µM] | TGI (CCRF-CEM leukemia) [µM] | GI50 (SF-539 CNS) [µM] | TGI (SF-539 CNS) [µM] | GI50 (SN12C renal) [µM] | TGI (SN12C renal) [µM] | GI50 (MALME-3M melanoma) [µM] | TGI (MALME-3M melanoma) [µM] | GI50 (HCC-2998 colon) [µM] | TGI (HCC-2998 colon) [µM] | GI50 (HOP-62 NSCLC) [µM] | TGI (HOP-62 NSCLC) [µM] | GI50 (MCF7 breast) [µM] | TGI (MCF7 breast) [µM] | GI50 (MOLT-4 leukemia) [µM] | TGI (MOLT-4 leukemia) [µM] | GI50 (DU-145 prostate) [µM] | TGI (DU-145 prostate) [µM] | GI50 (NCI-H460 lung) [µM] | TGI (NCI-H460 lung) [µM]
1 | COc1cccc2c1C(=O)c1c(O)c3c(c(O)c1C2=O)C[C@@](O)(C(=O)CO)C[C@@H]3OC1CC2C(OCN2CN2COC3C(C)OC(O[C@H]4C[C@](O)(C(=O)CO)Cc5c(O)c6c(c(O)c54)C(=O)c4c(OC)cccc4C6=O)CC32)C(C)O1 (some centres undefined) | 0.000537 | 0.0221 | 0.0112 | 0.0638 | 0.00924 | 0.101 | 0.0149 | 0.0399 | 0.0138 | 0.0441 | 0.00609 | 0.103 | 0.00264 | 0.12 | 0.000203 | 0.00801 | 0.00312 | > 1 | 0.000207 | 0.0864
2 | O=C1c2ccccc2-n2c1nc1ccc([N+](=O)[O-])cc1c2=O | – | > 100 | – | > 100 | – | > 100 | – | > 100 | – | > 100 | – | > 100 | – | 24.4 | – | > 100 | – | > 100 | – | > 100
3 | CCOC(=O)c1c(C)n(Cc2ccc(Cl)cc2Cl)c2c1cc(O)c1[nH]c(Cc3ccccc3)nc12 | – | – | 7.62 | 19.9 | 4 | 12.1 | 7.26 | 28.8 | 2.41 | 5.23 | 4.61 | 19.4 | 3.24 | 10.1 | 2.3 | 5.27 | 3.07 | 8.66 | 2.71 | 6.65
4 | C(#Cc1ccccc1C#Cc1cnccn1)c1cnccn1 | 32.3 | > 100 | 27.8 | > 100 | 24.1 | > 87.1 | 29.8 | 80.4 | 32.2 | > 100 | 26.3 | 85.8 | 24.9 | > 67.5 | – | – | 21.8 | > 100 | 18.3 | > 71.9
5 | CCCCCCCCCCCCNCCCc1ccccc1 | 2.15 | 5.32 | 1.89 | 3.32 | 1.63 | 3.27 | 1.97 | 3.64 | 1.75 | 3.23 | 2.07 | 3.7 | 1.81 | 3.35 | 2.04 | 4.5 | 1.92 | 3.51 | 1.83 | 3.4
6 | C[C@H]1CCC/C=C/[C@@H]2C[C@H](O)C[C@H]2[C@H](O)C(O)C(O)C(=O)O1 (some centres undefined) | 2.73 | > 25.9 | 0.677 | > 100 | 2.66 | 7.63 | 1.56 | 5.57 | 2.15 | > 22.4 | 4.85 | > 100 | 2.64 | > 20.1 | 0.906 | 4.56 | 6.69 | > 100 | 2.65 | > 100
7 | Cc1ccc(S(=O)(=O)NC(=O)Nc2ncn[nH]2)cc1 | – | > 100 | – | > 100 | – | > 100 | – | > 100 | – | > 100 | – | > 100 | – | > 100 | – | > 100 | – | > 100 | – | > 100
8 | O=C1OC(=O)c2c1cc1cc3c(cc1c2-c1ccc2c(c1)OCO2)OCO3 | – | > 100 | – | > 100 | – | > 100 | – | > 100 | – | > 100 | – | – | – | > 100 | – | > 100 | – | > 100 | – | > 100
9 | COc1ccc(C(=O)c2no[n+]([O-])c2C(=O)c2ccc(OC)cc2)cc1 | – | – | 2.19 | 4.97 | 9.06 | 22.1 | 0.82 | 3.07 | 17.5 | 31.6 | 15.2 | 29.3 | 4.42 | 18.2 | 1.93 | 4.25 | 14.5 | 27.6 | 17.2 | 33.5
10 | CC(C)(C)c1ccc(OCCCCCCCN2CCNCC2)cc1 | 1.62 | 4.1 | – | – | 2.73 | 7.62 | 1.6 | 3.17 | 1.7 | 3.22 | 1.3 | 2.92 | 1.62 | 3.26 | 1.7 | 3.71 | 1.78 | 3.37 | 1.83 | 3.47
11 | O=C1c2c[n+](Cc3ccccc3)ccc2-c2nc3ccccc3c3ccnc1c23 | 0.951 | 2.81 | 0.545 | 1.17 | – | – | 0.499 | 1.02 | 0.609 | 1.74 | 0.0569 | 0.817 | 0.163 | 0.89 | 0.719 | 1.89 | 0.417 | 0.891 | 0.0673 | 0.499

From PubChem BioAssay (NCI)
